From paper PMC9682078, “Structural changes and molecular mechanism study on the inhibitory activity of epigallocatechin against α-glucosidase and α-amylase” (Frontiers in Nutrition, 2022)

Biological target: T1, α-amylase (Sus scrofa, UniProt P00690)
T1 construct: gene AMY2
T1 sequence (P00690 16-511): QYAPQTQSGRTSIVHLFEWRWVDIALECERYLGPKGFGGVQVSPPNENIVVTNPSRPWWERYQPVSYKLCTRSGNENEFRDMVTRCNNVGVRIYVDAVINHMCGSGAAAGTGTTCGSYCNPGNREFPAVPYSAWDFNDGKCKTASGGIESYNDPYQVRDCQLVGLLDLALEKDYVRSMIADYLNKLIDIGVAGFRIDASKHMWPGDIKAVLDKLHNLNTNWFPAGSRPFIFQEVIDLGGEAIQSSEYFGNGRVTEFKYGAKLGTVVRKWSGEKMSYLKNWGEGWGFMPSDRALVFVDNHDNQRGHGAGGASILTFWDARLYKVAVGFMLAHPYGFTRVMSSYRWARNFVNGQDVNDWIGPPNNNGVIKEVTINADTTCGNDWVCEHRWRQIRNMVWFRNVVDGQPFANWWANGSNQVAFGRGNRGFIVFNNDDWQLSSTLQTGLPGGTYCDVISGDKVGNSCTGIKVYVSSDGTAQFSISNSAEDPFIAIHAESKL
Experiment: colorimetric DNS starch hydrolysis assay; Lineweaver-Burk kinetics; intrinsic fluorescence quenching
Assay type: biochemical

- IC50: 4.44 mM
SMILES: Oc1cc(O)c2c(c1)O[C@H](c1cc(O)c(O)c(O)c1)[C@H](O)C2 [EGC, epigallocatechin]
